Results: US20180140694A1, “DOSAGE REGIMEN FOR HIV VACCINE” (priority 2015, published 2018)

Experiments:
[1] = test system: Histone H3 acetylation in lymphocytes; test: Histone H3 acetylation in lymphocytes by flow cytometry (REDUC); type: in vivo, human; conditions: REDUC Part A, following each romidepsin administration, 5 mg/m^2
Experimental: Histone H3 acetylation: Measured in lymphocytes using flow cytometry with intracellular cytokine stain on fresh isolated PBMCs.
Histone H3 acetylation was measured in lymphocytes using flow cytometry with intracellular cytokine staining on fresh isolated PBMCs. Freshly isolated PBMC's were fixated, permeabilised and stained with acetylation-specific antibodies, providing the possibility to evaluate epigenetic modifications on Histones (Rigby L, Muscat A, Ashley D, Algar E. Epigenetics 2012; 7(8):875-882). Briefly, PBMCs (1×10^6) were resuspended in 3 ml ice-cold PBS/1% FBS and centrifuged, then vortexed to dissolve pellet and fixative added, 100 μl 2% PFA (ice-cold), vortexed briefly and incubated on ice for 15 min. Cells were then washed in 4 ml PBS, resuspended in 200 μl PBS and stored at 4° C. until staining. Samples were washed with 3 ml FACS buffer and vortexed to dissolve cell pellet prior to adding 100 μl 0.2% Triton X-100, vortexed briefly and incubated for 10 min. at room temperature (RT). Samples were then washed with FACS buffer, 600 μl Block (PBS/10% FBS) was added, sample vortexed to resuspend cell pellet and incubated for 20 min at RT. […] Finally, samples were washed with FACS buffer and resuspended in 80 μl PBS and analyzed by FACS (50 000 events, anti-acetyl histone H3 Median Fluorescence Intensity, MFI, calculated by subtracting background MFI from isotype control).

Plasma HIV-1 RNA [2] = test: Plasma HIV-1 RNA by transcription mediated amplification (NAT screen, PROCLEIX ULTRIO Plus); type: in vivo; conditions: REDUC Part A
Experimental: Plasma HIV-1 RNA detection by NAT screen: Measured by a transcription mediated amplification (TMA)-based methodology, usually referred to as a nucleic acid test (NAT)-screen (PROCLEIX ULTRIO Plus, Genprobe).
Plasma HIV RNA, quantitative viral load, was measured by Cobas® TaqMan® HIV-1 Test, v2.0 (Roche) according the manufacturer's instruction (routine clinical assay). The lower limit of quantification for this assay is 20 copies HIV-1 RNA/mL, but it provides a qualitative assessment below this. Plasma HIV-1 RNA was also measured by a transcription mediated amplification (TMA)-based methodology, usually referred to as a nucleic acid test (NAT)-screen (PROCLEIX ULTRIO Plus, Genprobe), according to manufacturer's instructions.

[3] = Safety and tolerability evaluation in REDUC trial (adverse events); type: in vivo, human
From the text: The primary endpoint of Part A was safety and tolerability; evaluation as measured by adverse events (AE), adverse reactions (AR), serious adverse events (SAE), serious adverse reactions (SAR), serious unexpected adverse reactions (SUSAR).
The primary endpoint of Part B was firstly, safety and tolerability evaluation as measured by adverse events (AE), adverse reactions (AR), serious adverse events (SAE), serious adverse reactions (SAR), serious unexpected adverse reactions (SUSAR) and dose-limiting toxicity.

[4] = test system: latent HIV-1 reservoir in CD4+ T cells; test: Total HIV-1 DNA per 10^6 CD4+ T cells by droplet digital PCR (REDUC); type: in vivo; conditions: REDUC Part A, romidepsin infusions without preceding vaccination
From the text: Total HIV-1 DNA (copies per 10^6 CD4+ T cells): Total HIV DNA quantifies integrated and non-integrated DNA as well as latent and defective virus. There is a strong correlation between total HIV DNA and integrated HIV DNA in patients on cART and therefore cell-associated HIV DNA is likely to be a good surrogate marker of the total number of latently infected cells [Koelsch 2008].
For HIV-1 DNA quantifications, CD4 T cells were isolated using a CD4+ T Cell Isolation Kit Miltenyi biotec, cat no 130-096-533) on LS columns (Miltenyi biotec, cat no 130-042-401). After CD4 T isolation, cells were resuspended in lysis buffer and digested as previously described [Chomont, 2009 Nat Med, 15(8): 893-900]. Cell lysates were used directly for HIV-1 DNA quantifications using the QX100™ Droplet Digital™ PCR system (Bio-Rad) to determine the absolute levels of total HIV-1 DNA per 106 CD4+ T cells [Strain et al 2013 PLOS One].

[5] = test system: HIV-1 transcription in CD4+ T cells; test: Cell associated unspliced HIV-1 RNA in CD4+ T cells by droplet digital PCR (REDUC); type: in vivo; conditions: REDUC Part A
Experimental: Unspliced HIV-1 RNA (copies per 10^6 CD4+ T cells): HIV transcription was measured as copies of cell-associated unspliced HIV-1 RNA/106 CD4+ T cells using digital droplet PCR.
HIV transcription was measured as copies of cell-associated unspliced HIV-1 RNA/106 CD4+ T cells using digital droplet PCR. CD4+ T-cells were isolated from PBMCs using Miltenyi Biotec negative bead separation kit (CD4 T cell isolation, #130-096-533) as described with LD separation columns, lysed (Lysis buffer from Qiagen DNA/RNA extraction kit), and stored ad −80° C. until extraction of RNA and DNA (Allprep isolation kit, Qiagen). Reverse transcription, amplification and quantitation of cell-associated unspliced HIV RNA from HIV patients was performed as follows. In summary, HIV unspliced RNA was detected on the BioRad QX100 droplet digital platform using a defined primer/probe set and related to total cell input by quantitation of the IPO8 (Importin 8) and TBP (Tata Binding Protein) gene transcription. […] After cycling droplets were subsequently read automatically by the QX100 droplet reader (BioRad) and the data was analyzed with the QuantaSoft™ analysis software (BioRad). On average, the six HIV replicates generated 80,000-98,000 droplets to be analyzed per time point.

Plasma HIV-1 RNA [6] = conditions: REDUC Part A
Experimental: Plasma HIV RNA, quantitative viral load: Measured by Roche VL (routine clinical assay).
Plasma HIV RNA, quantitative viral load, was measured by Cobas® TaqMan® HIV-1 Test, v2.0 (Roche) according the manufacturer's instruction (routine clinical assay). The lower limit of quantification for this assay is 20 copies HIV-1 RNA/mL, but it provides a qualitative assessment below this.

[7] = REDUC Part A, romidepsin 5 mg/m^2, 6 patients

## C/C=C1\NC(=O)[C@H]2CSSCC/C=C/[C@H](CC(=O)N[C@H](C(C)C)C(=O)N2)OC(=O)[C@H](C(C)C)NC1=O [romidepsin, (1S,4S,7Z,10S,16E,21R)-7-ethylidene-4,21-bis(1-methylethyl)-2-oxa-12,13-dithia-5,8,20,23-tetraazabicyclo[8.7.6] tricos-16-ene-3,6,9,19,22-pentone]
[1]
  Lymphocyte histone H3 acetylation, maximum fold range relative to baseline: 3.7-7.7 fold
Plasma HIV-1 RNA [2]
  Plasma HIV-1 RNA detection by transcription-mediated amplification assay, post-infusion versus baseline: detected more frequently
[3]; [7]
  adverse event grade: most adverse events (AEs) were of grade 1
  serious adverse events: No serious adverse events were observed
[3]; REDUC Part B, of 141 in total
  adverse events considered related to the agent: 57 adverse events
[4]
  size of the latent reservoir: not affected
[5]
  cell-associated un-spliced HIV RNA as a result of romidepsin infusion: significantly increased
[5]; after third infusion
  cell-associated un-spliced HIV-1 RNA, fold range from baseline: 2.4-5.0 fold
Plasma HIV-1 RNA [6]
  extracellular HIV RNA as a result of romidepsin infusion: significantly increased
Plasma HIV-1 RNA [6]; multiple post-infusion time-points
  patients with plasma HIV-1 RNA increased to readily quantifiable levels: 5 of 6 patients
Plasma HIV-1 RNA [6]; range following the second infusion, <20 copies/mL at baseline
  plasma HIV-1 RNA: 46-103 copies/mL
